Among the targets are D(3) dopamine receptor (Homo sapiens, UniProt P35462); Vasopressin V2 receptor (Homo sapiens, UniProt P30518); Histamine H1 receptor (Homo sapiens, UniProt P35367); Nischarin (Rattus norvegicus, UniProt Q4G017).
Experiment [1] deals with 5-hydroxytryptamine receptor 1B (Homo sapiens, UniProt P28222).
The next experiment deals with T1, Vasopressin V1b receptor (Homo sapiens, UniProt P47901).
T1 sequence (P47901 whole entry): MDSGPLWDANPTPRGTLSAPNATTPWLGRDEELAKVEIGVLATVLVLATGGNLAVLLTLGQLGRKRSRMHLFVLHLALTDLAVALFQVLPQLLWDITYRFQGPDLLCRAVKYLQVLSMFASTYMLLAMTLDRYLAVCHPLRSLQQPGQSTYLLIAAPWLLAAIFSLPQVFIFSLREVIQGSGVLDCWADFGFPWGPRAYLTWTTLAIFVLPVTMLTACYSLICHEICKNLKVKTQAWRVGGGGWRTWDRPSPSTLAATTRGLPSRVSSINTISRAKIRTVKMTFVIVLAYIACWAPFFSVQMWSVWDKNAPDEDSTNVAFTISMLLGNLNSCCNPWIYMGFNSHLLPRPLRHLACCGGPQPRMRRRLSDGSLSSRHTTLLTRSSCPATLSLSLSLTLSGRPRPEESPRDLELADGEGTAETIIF

In another experiment the target is T2, Oxytocin receptor (Homo sapiens, UniProt P30559).
T2 sequence (P30559 whole entry): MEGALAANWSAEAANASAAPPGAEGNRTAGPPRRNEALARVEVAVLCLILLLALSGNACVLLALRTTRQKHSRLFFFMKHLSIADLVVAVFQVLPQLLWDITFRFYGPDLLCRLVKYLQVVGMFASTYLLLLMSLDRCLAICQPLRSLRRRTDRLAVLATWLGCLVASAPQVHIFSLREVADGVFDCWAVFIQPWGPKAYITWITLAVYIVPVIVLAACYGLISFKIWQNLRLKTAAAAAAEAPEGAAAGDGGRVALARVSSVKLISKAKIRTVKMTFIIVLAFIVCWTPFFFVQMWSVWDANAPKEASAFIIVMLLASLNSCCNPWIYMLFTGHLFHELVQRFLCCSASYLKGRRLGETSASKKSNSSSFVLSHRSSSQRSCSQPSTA

Experiment [2] deals with Neuronal acetylcholine receptor subunit alpha-4 (Homo sapiens, UniProt P43681).
Neuronal acetylcholine receptor subunit alpha-4 (Homo sapiens, UniProt P43681), sequence (P43681 whole entry): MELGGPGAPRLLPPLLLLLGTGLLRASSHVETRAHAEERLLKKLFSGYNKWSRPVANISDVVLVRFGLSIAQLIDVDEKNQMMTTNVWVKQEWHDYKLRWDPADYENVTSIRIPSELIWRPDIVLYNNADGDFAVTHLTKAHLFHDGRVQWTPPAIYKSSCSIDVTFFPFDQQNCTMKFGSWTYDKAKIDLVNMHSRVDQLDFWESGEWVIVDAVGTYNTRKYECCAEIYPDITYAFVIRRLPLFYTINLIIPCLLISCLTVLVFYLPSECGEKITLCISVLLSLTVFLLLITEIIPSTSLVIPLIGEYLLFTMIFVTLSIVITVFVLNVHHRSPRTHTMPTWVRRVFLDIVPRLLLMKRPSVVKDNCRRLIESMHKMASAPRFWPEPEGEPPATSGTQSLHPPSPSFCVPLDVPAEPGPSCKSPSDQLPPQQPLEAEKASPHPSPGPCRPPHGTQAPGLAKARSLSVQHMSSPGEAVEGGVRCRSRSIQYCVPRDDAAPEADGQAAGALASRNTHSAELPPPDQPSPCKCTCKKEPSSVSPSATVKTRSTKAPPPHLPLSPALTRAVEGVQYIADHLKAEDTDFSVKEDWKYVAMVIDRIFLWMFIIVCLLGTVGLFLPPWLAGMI
Experiment [3] addresses Neuronal acetylcholine receptor subunit alpha-4 (Rattus norvegicus, UniProt P09483).
For experiment [4], the target named is Beta-1 adrenergic receptor (Rattus norvegicus, UniProt P18090).
Beta-1 adrenergic receptor, sequence (P18090 whole entry): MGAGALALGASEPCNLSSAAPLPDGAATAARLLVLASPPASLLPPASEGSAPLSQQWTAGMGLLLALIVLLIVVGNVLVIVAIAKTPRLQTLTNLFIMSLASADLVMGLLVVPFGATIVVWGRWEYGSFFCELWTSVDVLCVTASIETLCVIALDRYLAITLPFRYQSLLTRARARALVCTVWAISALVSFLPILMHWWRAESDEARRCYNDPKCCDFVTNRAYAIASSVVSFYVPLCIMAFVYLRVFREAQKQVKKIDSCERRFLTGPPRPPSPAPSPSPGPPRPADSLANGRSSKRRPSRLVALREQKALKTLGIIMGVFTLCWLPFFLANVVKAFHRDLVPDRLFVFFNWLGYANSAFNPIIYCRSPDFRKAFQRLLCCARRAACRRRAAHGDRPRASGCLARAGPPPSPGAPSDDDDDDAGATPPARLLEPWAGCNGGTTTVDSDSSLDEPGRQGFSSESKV
In experiment [5] the target is Neuronal acetylcholine receptor subunit alpha-2 (Homo sapiens, UniProt Q15822).
The target in experiment [6] is Metabotropic glutamate receptor 5 (Rattus norvegicus, UniProt P31424).
The target of experiment [7] is Metabotropic glutamate receptor 4 (Rattus norvegicus, UniProt P31423).
Metabotropic glutamate receptor 4, sequence (P31423 whole entry): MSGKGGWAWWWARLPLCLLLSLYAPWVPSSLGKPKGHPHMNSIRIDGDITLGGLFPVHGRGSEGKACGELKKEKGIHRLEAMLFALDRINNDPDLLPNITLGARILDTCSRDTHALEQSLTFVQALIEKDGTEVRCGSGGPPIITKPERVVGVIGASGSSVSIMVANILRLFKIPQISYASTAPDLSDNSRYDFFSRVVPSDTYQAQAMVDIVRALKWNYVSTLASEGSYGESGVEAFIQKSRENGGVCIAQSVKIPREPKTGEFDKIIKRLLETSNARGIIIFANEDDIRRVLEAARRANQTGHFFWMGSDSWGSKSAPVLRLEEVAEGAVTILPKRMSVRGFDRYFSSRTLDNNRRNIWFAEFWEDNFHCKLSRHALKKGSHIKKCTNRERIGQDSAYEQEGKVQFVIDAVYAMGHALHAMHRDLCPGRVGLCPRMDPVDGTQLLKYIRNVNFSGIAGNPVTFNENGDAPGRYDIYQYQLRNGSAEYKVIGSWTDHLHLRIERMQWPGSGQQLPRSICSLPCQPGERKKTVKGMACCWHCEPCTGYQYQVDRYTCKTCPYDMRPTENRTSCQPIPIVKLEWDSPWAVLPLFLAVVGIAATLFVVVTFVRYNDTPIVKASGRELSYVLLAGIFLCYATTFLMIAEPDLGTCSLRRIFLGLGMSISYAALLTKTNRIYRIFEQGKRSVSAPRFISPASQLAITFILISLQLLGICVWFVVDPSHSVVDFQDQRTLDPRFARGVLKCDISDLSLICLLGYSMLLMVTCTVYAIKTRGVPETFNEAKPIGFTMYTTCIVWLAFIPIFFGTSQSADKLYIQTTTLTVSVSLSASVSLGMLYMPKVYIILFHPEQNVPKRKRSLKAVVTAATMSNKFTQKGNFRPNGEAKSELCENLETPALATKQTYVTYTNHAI
Experiment [8] addresses Metabotropic glutamate receptor 8 (Rattus norvegicus, UniProt P70579).
In experiment [9] the target is Metabotropic glutamate receptor 6 (Rattus norvegicus, UniProt P35349).
Experiment [10] concerns the target Metabotropic glutamate receptor 2 (Rattus norvegicus) (UniProt P31421).
For experiment [11], the target named is Metabotropic glutamate receptor 1 (Rattus norvegicus, UniProt P23385).

Histamine H1 receptor, sequence (P35367 whole entry): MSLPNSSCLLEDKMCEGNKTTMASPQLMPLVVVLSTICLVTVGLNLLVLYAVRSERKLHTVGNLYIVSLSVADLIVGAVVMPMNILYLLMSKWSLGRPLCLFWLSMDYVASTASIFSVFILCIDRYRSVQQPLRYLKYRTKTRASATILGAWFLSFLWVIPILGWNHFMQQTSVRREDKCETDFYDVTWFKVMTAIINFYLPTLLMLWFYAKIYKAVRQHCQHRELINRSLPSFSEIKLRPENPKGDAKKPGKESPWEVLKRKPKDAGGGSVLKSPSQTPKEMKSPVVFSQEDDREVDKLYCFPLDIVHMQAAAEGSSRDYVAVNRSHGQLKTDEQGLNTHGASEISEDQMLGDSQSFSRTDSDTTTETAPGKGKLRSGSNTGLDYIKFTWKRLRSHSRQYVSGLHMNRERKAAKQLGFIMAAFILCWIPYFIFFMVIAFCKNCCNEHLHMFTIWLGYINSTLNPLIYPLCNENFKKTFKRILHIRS
Metabotropic glutamate receptor 8, sequence (P70579 whole entry): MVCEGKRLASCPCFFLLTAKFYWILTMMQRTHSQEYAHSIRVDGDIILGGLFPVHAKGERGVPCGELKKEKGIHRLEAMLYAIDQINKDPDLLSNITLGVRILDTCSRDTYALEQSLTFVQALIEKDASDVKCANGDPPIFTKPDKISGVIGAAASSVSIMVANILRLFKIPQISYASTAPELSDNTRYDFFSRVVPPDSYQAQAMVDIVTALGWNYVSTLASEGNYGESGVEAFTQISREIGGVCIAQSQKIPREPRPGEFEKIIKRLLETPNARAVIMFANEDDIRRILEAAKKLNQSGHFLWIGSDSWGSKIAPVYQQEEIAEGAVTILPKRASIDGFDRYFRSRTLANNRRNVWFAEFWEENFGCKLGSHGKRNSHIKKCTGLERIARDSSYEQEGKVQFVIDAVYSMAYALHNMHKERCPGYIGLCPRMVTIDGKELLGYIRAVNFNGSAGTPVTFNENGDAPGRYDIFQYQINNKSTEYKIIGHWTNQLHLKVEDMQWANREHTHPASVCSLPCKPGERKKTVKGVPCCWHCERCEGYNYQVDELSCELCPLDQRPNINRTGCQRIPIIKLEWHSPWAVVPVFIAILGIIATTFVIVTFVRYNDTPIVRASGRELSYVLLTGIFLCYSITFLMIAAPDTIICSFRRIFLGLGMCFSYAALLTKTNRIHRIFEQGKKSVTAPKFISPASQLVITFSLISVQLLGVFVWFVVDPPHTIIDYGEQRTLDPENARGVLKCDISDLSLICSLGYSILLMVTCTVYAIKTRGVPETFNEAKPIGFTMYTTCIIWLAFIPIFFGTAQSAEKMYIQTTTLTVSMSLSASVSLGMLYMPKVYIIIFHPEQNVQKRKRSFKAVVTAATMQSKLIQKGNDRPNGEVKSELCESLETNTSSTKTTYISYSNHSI
D(3) dopamine receptor, sequence (P35462 as listed by the source): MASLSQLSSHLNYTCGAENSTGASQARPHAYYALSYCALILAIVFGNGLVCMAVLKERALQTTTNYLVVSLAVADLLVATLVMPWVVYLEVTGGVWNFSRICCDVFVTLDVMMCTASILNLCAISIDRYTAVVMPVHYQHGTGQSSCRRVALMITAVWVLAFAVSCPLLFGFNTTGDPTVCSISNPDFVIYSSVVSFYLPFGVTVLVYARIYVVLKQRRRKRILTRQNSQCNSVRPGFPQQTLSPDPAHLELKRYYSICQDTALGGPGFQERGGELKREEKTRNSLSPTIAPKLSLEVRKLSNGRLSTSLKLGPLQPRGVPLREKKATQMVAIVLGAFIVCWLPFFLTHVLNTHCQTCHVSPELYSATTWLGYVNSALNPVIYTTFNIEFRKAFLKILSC
Metabotropic glutamate receptor 2 (Rattus norvegicus), sequence (P31421 whole entry, looked up): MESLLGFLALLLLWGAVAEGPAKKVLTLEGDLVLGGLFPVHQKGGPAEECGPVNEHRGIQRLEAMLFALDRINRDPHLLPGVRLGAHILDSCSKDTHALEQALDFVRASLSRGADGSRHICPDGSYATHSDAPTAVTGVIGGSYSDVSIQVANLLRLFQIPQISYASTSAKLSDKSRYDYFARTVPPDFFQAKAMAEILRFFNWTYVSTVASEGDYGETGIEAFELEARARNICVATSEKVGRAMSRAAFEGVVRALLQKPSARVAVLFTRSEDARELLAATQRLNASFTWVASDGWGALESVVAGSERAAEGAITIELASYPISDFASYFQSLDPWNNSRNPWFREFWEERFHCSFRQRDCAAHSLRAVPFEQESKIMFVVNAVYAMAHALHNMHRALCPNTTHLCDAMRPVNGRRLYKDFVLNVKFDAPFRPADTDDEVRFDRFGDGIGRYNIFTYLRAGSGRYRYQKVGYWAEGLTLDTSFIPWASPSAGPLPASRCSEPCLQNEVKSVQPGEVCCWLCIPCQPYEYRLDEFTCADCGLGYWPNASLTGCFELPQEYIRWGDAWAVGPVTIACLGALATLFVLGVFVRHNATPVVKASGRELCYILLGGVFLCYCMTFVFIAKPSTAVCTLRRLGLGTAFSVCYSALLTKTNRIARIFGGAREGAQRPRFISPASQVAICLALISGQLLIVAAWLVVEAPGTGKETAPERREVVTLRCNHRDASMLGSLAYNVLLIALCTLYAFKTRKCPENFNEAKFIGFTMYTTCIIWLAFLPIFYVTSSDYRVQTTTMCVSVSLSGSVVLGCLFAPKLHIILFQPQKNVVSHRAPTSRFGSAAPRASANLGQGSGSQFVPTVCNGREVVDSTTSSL
Vasopressin V2 receptor, sequence (P30518 whole entry): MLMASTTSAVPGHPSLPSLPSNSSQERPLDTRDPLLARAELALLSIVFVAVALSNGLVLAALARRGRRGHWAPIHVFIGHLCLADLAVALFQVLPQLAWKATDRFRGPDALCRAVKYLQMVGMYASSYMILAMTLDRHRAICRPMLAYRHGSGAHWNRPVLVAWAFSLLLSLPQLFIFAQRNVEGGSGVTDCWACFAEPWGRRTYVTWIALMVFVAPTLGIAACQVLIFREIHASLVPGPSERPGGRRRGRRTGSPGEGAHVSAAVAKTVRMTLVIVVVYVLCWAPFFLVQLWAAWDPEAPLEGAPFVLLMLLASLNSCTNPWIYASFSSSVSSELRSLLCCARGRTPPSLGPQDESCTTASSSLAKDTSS

In general, Ki refers to a measure of affinity in units of concentration, obtained from inhibition or displacement. Low values mean higher affinity, high ones lower affinity. As for `N[C@@H](CCS(=O)(=O)O)C(=O)O` (racemic), the Ki (at D(3) dopamine receptor; in [1]; at Vasopressin V1b receptor; on Oxytocin receptor; at Vasopressin V2 receptor) was more than 10 µM each time.
On to `N[C@@H](CCS)C(=O)O` (racemic) [CAS_778], for which the Ki (on D(3) dopamine receptor; on Histamine H1 receptor; in experiment [1]; in experiment [2]; in [3]; in experiment [4]) was more than 10 µM each time. For the same compound, the inhibitory constant (Ki) (on Vasopressin V1b receptor; in experiment [5]; on Oxytocin receptor; at Vasopressin V2 receptor) was more than 10 µM each time.
The term EC50 denotes the concentration giving half of the maximal effect. High values mean weaker potency, low ones greater potency. In the case of `NC(CS(=O)O)C(=O)O` (stereo not drawn) [CAS_109], the Ki (at D(3) dopamine receptor; at Histamine H1 receptor; in experiment [1]; in experiment [2]; in experiment [3]; in [4]) was more than 10 µM throughout. The Ki (at Vasopressin V1b receptor; in [5]; at Nischarin; on Oxytocin receptor; at Vasopressin V2 receptor) was more than 10 µM each time. For the same compound, the EC50 in [6], in experiment [7], in experiment [8], in experiment [9], in experiment [10] and in [11] was more than 10 µM in each case.
For the compound `NC(CSSCC(N)C(=O)O)C(=O)O` (stereo not drawn) [CAS_595], the Ki (at D(3) dopamine receptor; on Histamine H1 receptor; in experiment [1]; in [2]; in experiment [3]; in experiment [4]) was more than 10 µM each time. Besides, the inhibitory constant (Ki) (on Vasopressin V1b receptor; in [5]; at Nischarin; at Oxytocin receptor; at Vasopressin V2 receptor) was more than 10 µM in each case.
As to `N[C@@H](CS)C(=O)O` [CAS_5862], the inhibition constant Ki (on D(3) dopamine receptor; on Histamine H1 receptor; in experiment [1]; in experiment [2]; in experiment [3]; in [4]) was more than 10 µM each time. Further, the Ki (on Vasopressin V1b receptor; in [5]; at Nischarin; at Oxytocin receptor; on Vasopressin V2 receptor) was more than 10 µM each time.
For the compound `CSCC[C@@H](N)C(=O)O` [CAS_6137], the inhibition constant (Ki) (on D(3) dopamine receptor; on Histamine H1 receptor; in [1]; in experiment [2]; in experiment [3]; in experiment [4]) was more than 10 µM throughout. Also, the Ki (on Vasopressin V1b receptor; in [5]; on Nischarin; at Oxytocin receptor; at Vasopressin V2 receptor) was more than 10 µM throughout.
Take `N[C@H](CCS(=O)(=O)O)C(=O)O` [D-homocysteic acid]: the Ki (at D(3) dopamine receptor; at Histamine H1 receptor; in experiment [1]; in experiment [2]; in experiment [3]; in [4]) was more than 10 µM in each case. Moreover, the Ki (on Vasopressin V1b receptor; in [5]; at Nischarin; on Oxytocin receptor; at Vasopressin V2 receptor) was more than 10 µM each time.
Consider `N[C@H](CCS(=O)O)C(=O)O` [D-homocysteine sulfinic acid], for which the inhibition constant (Ki) (on D(3) dopamine receptor; at Histamine H1 receptor; in experiment [1]; in experiment [2]; in [3]; in [4]) was more than 10 µM throughout. For the same compound, the Ki (at Vasopressin V1b receptor; in experiment [5]; at Nischarin; on Oxytocin receptor; on Vasopressin V2 receptor) was more than 10 µM throughout.
As for `N[C@@H]1CCSC1=O` [D-homocysteine thiolactone], the inhibition constant Ki (at Histamine H1 receptor; in [2]; in experiment [3]; in [4]; in experiment [5]; at Nischarin) was more than 10 µM throughout.
On to `N[C@H](CS(=O)(=O)O)C(=O)O` [L-cysteic acid], for which the inhibitory constant (Ki) (on D(3) dopamine receptor; at Histamine H1 receptor; in experiment [1]; in [2]; in experiment [3]; in experiment [4]) was more than 10 µM each time. The inhibition constant Ki (at Vasopressin V1b receptor; in experiment [5]; at Nischarin; at Oxytocin receptor; at Vasopressin V2 receptor) was more than 10 µM each time. In addition, the EC50 in [6], in experiment [7], in [8], in experiment [9], in experiment [10] and in [11] was more than 10 µM throughout.
For the compound `N[C@@H](CCS(=O)O)C(=O)O` [L-homocysteine sulfinic acid], the Ki (at D(3) dopamine receptor; on Histamine H1 receptor; in experiment [1]; in [2]; in [3]; in experiment [4]) was more than 10 µM throughout. Further, the Ki (on Vasopressin V1b receptor; in experiment [5]; on Nischarin; at Oxytocin receptor; on Vasopressin V2 receptor) was more than 10 µM throughout. In addition, the EC50 in [6] was 5.75 µM; in experiment [7], more than 10 µM; in [8] it was more than 10 µM; in [9] it was 6.17 µM; in [10], more than 10 µM; in experiment [11], more than 10 µM.
Consider `N[C@H]1CCSC1=O` [NSC_134505], for which the Ki (at Histamine H1 receptor; in [2]; in [3]; in experiment [4]; in experiment [5]; at Nischarin) was more than 10 µM each time.

The values above are taken from BindingDB's records for doi:10.1124/jpet.102.047092 (Case Western Reserve University, 2003).
